Measured values reported in ChEMBL document CHEMBL4602694, “Suppression of Drug-Resistant Non-Small-Cell Lung Cancer with Inhibitors Targeting Minichromosomal Maintenance Protein” (J Med Chem, 2020).
Calls of active or inactive are those of the source. No cut-off for these calls is given here.

Legend:
[1] = Antiproliferative activity against human CL1-5 cells assessed as reduction in cell viability incubated for 72 hrs by SRB assay; type: functional, cell-based; conditions: CL1-5, 72 h
NCI-H1975 [2] = test: Antiproliferative activity against human NCI-H1975 cells assessed as reduction in cell viability incubated for 72 hrs by SRB assay; type: functional, cell-based; conditions: NCI-H1975, 72 h
NCI-H1975 [3] = test: Antitumor activity against human NCI-H1975 cells xenografted in athymic nude BALB/c mouse assessed as delay in tumor growth at 1 or 4 mg/kg, ip administered for 4 weeks; type: functional, organism-based
NCI-H1975 [4] = test: Antitumor activity against human NCI-H1975 cells xenografted in athymic nude BALB/c mouse assessed as tumor growth inhibition at 1 mg/kg, ip administered for 4 weeks relative to control; type: functional; conditions: 672 h, read-out: TGI
[5] = Toxicity in athymic nude BALB/c mouse xenografted with human NCI-H1975 cells assessed as effect on kidney at 1 or 4 mg/kg, ip administered for 4 weeks; type: organism-based; conditions: in vivo, 672 h
[6] = Toxicity in athymic nude BALB/c mouse xenografted with human NCI-H1975 cells assessed as effect on serum alanine transaminase at 1 or 4 mg/kg, ip administered for 4 weeks; type: organism-based; conditions: in vivo, 672 h
NCI-H1975 [7] = test: Cell cycle arrest in human NCI-H1975 cells assessed as accumulation in S phase at 140 nM incubated for 72 hrs by propidium iodide base flow cytometry analysis (reference value: 2 %); type: functional
NCI-H1975 [8] = test: Cell cycle arrest in human NCI-H1975 cells assessed as accumulation in G2/M phase at 140 nM incubated for 72 hrs by propidium iodide base flow cytometry analysis (reference value: 17 %); type: functional
[9] = biological target: DNA replication licensing factor MCM7 (Homo sapiens) (UniProt P33993); test: Induction of ubiquitination of MCM7 in human H3255 cells incubated for 24 hrs by immunoblot analysis; type: cell-based; conditions: NCI-H3255
Sequence of DNA replication licensing factor MCM7 (Homo sapiens) (P33993 whole entry): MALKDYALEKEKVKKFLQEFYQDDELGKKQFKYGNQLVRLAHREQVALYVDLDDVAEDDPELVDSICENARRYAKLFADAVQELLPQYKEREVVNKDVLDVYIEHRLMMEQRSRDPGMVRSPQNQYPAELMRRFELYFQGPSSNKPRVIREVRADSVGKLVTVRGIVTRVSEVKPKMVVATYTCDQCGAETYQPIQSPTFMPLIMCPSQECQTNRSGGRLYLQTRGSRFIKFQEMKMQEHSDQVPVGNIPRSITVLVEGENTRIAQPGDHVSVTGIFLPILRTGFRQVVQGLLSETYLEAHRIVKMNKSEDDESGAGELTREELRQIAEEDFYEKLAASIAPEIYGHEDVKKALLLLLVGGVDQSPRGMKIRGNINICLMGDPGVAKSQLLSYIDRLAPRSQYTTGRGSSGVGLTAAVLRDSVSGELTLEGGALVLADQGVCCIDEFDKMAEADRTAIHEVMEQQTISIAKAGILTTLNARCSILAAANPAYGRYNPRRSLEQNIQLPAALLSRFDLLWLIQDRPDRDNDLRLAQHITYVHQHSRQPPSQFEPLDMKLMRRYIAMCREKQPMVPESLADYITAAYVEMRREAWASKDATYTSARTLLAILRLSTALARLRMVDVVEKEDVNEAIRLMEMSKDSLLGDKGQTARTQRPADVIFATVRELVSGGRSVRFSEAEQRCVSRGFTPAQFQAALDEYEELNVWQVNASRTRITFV

[10] = biological target: DNA replication licensing factor MCM2 (Homo sapiens) (UniProt P49736); test: Induction of ubiquitination of MCM2 in human NCI-H1975 cells incubated for 72 hrs by immunoblot analysis (reference value: 1); type: cell-based
Sequence of DNA replication licensing factor MCM2 (Homo sapiens) (P49736 whole entry): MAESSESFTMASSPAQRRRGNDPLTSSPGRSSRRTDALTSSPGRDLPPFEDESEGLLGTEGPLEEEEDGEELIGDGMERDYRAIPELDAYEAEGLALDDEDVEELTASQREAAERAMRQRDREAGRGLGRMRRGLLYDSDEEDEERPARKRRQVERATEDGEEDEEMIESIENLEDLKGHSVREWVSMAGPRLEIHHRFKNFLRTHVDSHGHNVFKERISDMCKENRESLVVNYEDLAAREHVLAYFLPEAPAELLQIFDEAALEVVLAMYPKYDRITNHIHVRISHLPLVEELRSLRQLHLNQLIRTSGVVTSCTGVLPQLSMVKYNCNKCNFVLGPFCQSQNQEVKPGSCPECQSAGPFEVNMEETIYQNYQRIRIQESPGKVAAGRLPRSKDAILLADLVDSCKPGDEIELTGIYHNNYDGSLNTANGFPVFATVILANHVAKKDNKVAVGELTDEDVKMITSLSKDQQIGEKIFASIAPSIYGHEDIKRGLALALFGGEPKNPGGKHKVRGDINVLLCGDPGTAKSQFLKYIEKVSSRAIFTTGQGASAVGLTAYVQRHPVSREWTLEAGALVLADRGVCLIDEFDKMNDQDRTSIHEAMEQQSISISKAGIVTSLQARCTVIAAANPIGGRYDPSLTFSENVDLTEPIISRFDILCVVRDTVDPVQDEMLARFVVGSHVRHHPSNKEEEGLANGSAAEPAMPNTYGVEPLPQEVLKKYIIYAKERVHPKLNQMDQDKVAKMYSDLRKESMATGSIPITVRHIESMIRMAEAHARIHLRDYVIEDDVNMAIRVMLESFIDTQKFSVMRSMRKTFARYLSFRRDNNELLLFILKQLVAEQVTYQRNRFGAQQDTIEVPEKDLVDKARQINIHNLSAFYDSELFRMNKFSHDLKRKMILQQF

[11] = biological target: T1, DNA replication licensing factor MCM4 (Homo sapiens) (UniProt P33991); test: Induction of ubiquitination of MCM4 in human NCI-H1975 cells incubated for 24 hrs by immunoblot analysis (reference value: 1); type: cell-based
T1 sequence (whole entry): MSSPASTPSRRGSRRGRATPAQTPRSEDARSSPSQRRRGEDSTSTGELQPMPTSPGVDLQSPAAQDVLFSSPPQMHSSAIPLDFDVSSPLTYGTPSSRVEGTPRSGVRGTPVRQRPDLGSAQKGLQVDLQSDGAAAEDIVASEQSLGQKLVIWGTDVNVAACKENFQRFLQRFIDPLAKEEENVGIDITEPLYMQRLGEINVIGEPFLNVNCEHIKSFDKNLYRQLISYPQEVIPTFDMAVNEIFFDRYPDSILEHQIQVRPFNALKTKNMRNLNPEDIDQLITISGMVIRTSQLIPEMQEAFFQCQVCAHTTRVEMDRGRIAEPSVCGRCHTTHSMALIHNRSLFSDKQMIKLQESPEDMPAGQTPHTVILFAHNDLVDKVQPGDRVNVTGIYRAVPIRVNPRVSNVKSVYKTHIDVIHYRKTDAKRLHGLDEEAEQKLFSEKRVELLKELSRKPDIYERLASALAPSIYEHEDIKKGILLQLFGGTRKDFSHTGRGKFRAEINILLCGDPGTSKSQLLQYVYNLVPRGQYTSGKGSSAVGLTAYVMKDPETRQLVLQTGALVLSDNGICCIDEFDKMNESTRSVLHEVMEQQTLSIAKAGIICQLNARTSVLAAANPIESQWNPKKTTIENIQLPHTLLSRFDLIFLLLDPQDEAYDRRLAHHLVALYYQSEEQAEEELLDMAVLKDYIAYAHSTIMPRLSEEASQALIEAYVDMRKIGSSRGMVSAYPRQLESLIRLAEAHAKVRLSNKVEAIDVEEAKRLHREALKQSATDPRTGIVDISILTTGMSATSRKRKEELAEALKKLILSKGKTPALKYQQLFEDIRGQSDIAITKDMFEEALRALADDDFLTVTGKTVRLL

[12] = biological target: T1, DNA replication licensing factor MCM4 (Homo sapiens); test: Induction of ubiquitination of MCM4 in human NCI-H1975 cells incubated for 72 hrs by immunoblot analysis (reference value: 1); type: cell-based
[13] = biological target: T2, DNA replication licensing factor MCM5 (Homo sapiens) (UniProt P33992); test: Induction of ubiquitination of MCM5 in human NCI-H1975 cells incubated for 24 hrs by immunoblot analysis (reference value: 1); type: cell-based
T2 sequence (whole entry): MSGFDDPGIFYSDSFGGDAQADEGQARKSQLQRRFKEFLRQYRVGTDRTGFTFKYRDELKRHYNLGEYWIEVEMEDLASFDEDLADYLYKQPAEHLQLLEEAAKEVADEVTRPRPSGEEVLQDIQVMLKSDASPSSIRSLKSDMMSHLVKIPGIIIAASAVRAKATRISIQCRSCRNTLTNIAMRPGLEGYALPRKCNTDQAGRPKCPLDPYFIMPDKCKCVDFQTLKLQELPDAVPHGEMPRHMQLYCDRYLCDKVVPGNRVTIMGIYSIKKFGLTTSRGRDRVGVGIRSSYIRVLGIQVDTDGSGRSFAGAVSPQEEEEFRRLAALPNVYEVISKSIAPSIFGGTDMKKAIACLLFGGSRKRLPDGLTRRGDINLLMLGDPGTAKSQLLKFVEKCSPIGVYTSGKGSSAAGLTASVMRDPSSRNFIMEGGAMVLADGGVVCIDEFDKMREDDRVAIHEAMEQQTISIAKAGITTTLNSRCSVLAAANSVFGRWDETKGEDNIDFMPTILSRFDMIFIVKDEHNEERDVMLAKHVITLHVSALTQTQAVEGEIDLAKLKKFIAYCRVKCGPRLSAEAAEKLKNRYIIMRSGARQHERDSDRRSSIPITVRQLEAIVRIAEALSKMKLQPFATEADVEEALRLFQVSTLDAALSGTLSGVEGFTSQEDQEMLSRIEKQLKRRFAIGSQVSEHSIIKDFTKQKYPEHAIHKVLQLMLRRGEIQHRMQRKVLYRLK

[14] = biological target: T2, DNA replication licensing factor MCM5 (Homo sapiens); test: Induction of ubiquitination of MCM5 in human NCI-H1975 cells incubated for 72 hrs by immunoblot analysis (reference value: 1); type: cell-based
[15] = biological target: DNA replication licensing factor MCM2 (Homo sapiens) (UniProt P49736); test: Binding affinity to MCM2 in human NCI-H1975 cells assessed as reduction in MCM2 level measured up to 9 hrs by immunoblot analysis; type: cell-based
[16] = tested on: DNA replication licensing factor MCM2 (Homo sapiens), P49736 [Q341A]; test: Induction of ubiquitination of FLAG-tagged MCM2 Q341A mutant (unknown origin) expressed in human NCI-H1975 cells incubated for 24 hrs by magnetic beads technique based immunoblot analysis; type: cell-based
Sequence of DNA replication licensing factor MCM2 (Homo sapiens), P49736 [Q341A] (P49736 whole entry Q341A): as the sequence (P49736 whole entry) above, with Q341A counted along it

[17] = tested on: DNA replication licensing factor MCM2 (Homo sapiens), P49736 [Q341A]; test: Induction of ubiquitination of FLAG-tagged MCM2 Q341A mutant (unknown origin) expressed in human 293T cells incubated for 4 hrs by magnetic beads technique based immunoblot analysis; type: cell-based; conditions: HEK-293T
[18] = Selectivity index, ratio of IC50 for human bronchial epithelial cells to IC50 for human PC9IR cells; type: toxicity; conditions: human bronchial epithelial cells versus PC9IR cells, read-out: Ratio IC50

Cc1oc2c(c1C(=O)NCCCn1ccnc1)C(=O)c1ccccc1C2=O
IC50 [1]: < 100 nM
IC50 (NCI-H1975 [2]): 77 nM
Activity (NCI-H1975 [3]): Active
inhibition in vivo at 1 mg/kg (NCI-H1975 [4]): 44%
Activity [5]: Non-Toxic
Activity [6]: Non-Toxic
Activity (NCI-H1975 [7]): 18%
Activity (NCI-H1975 [8]): 38%
Activity [9]: Active
Activity [10]: 0.3
Activity [11]: 0.4
Activity [12]: 0.7
Activity [13]: 0.8
Activity [14]: 0.8
Activity [15]: Active
Activity [16]: inactive
Activity [17]: Active
selectivity ratio [18]: > 10
